The values that follow are results of earlier work, collected in patent US20070294068A1, “LINE-WALKING RECURSIVE PARTITIONING METHOD FOR EVALUATING MOLECULAR INTERACTIONS AND QUESTIONS RELATING TO TEST OBJECTS” (priority 2006, published 2007).

The data set deals with 2C9. The settings on record: literature reports.

For the compound `CCc1ccc(CCOc2ccc(CC3SC(=O)NC3=O)cc2)nc1` (centres unmarked) [pioglitazone], the “reported inhibition of 2C9” value is “weak inhibitor of the *2 allylic variant not the native enzyme”.
`Nc1ccc(S(=O)(=O)Nc2ncccn2)cc1` [sulfadiazine]: the “reported inhibition of 2C9” value is listed as “only a weak inhibitor”.
